Experimental data: patent US20260115201A1, “POTENTIAL THERAPEUTICS FOR FIBROSIS BY BLOCKING THE INCREASE OF A KEY ENZYME” (THE TEXAS A&M UNIVERSITY SYSTEM, priority 2022, published 2026)

System: bleomycin treated mice
Test: Bleomycin-induced pulmonary fibrosis in mice (survival, weight, BAL cells, lung collagen)
Assay type: in vivo, C57BL/6 mice
Procedure: The successful aspiration of bleomycin into the lungs was confirmed by listening for a crackling noise heard after the aspiration. 100 μl DMSO or 20 mg/kg RK33 in 100 μl DMSO was given to mice by intraperitoneal (IP) injection at day 10, 12, 14, 16, 18 and 20 after bleomycin treatment. Mice were weighed daily, and euthanized using CO2 following NIH guidelines at day 21 after bleomycin aspiration. The experiment was performed in accordance with the recommendations in the Guide for the Care and Use of Laboratory Animals of the National Institutes of Health. The Texas A&M University Animal Use and Care Committee approved the protocol.
The BALs were clarified by centrifugation at 500×g for 10 minutes, and the supernatants were transferred to Eppendorf tubes. The cells collected from BAL were counted, and BAL cytospins were prepared as described in Fibroblasts secrete Slit2 to inhibit fibrocyte differentiation and fibrosis, Proc Natl Acad Sci USA, 2014, 111: 18291-18296. BAL cytospins were fixed and treated with Wright-Giemsa stain (#08711, Polysciences, Inc., Warrington, PA) following Variation of differential cell counts of bronchoalveolar lavage fluid, Archives of pathology & laboratory medicine, 1986, 110(4): 341-343.
After collection of BAL fluid, mouse lungs were inflated with prewarmed Optimal Cutting Temperature (OCT) embedding medium (VWR, Radnor, PA) and then embedded in OCT, frozen on dry ice, and then stored at −80° C. 8-micron cryosections of mouse lungs were mounted on Superfrost Plus® microscope slides (VWR). The sections on the slides were allowed to air-dry for 24-48 hours. Total collagen on the mouse lung sections were stained with picrosirius red as described in Reduction of bleomycin-induced pulmonary fibrosis by serum amyloid P, J Immunol, 2007, 179: 4035-4044. Hydroxyproline in the mouse lung tissue was measured with a hydroxyproline assay as described in Attenuated pulmonary fibrosis in sialidase-3 knockout (Neu3−/−) mice, Am J Physiol Lung Cell Mol Physiol, 2020, 318(1): L165-L179.

[1] = 20 mg/kg IP, day 21 (FIGS. 6A-6B)

(diimidazo[4,5-d:4′,5′-f]-[1,3]diazepine) [RK33]
survival rate (20 mg/kg IP at day 10, 12, 14, 16, 18 and 20, to day 21 (FIG. 3)): dramatically increased
body weight recovery (20 mg/kg IP at day 10-20 every other day (FIG. 4)): improved
total cell number in BAL (20 mg/kg IP, day 21 (FIG. 5A)): significantly blocked the bleomycin effect
total collagen in lungs, hydroxyproline assay (20 mg/kg IP, day 21 (FIG. 7)): reduced the abnormally high levels of collagen
difference between lung of bleomycin+RK33 treated mouse and control mouse, picrosirius red collagen [1]: no significant difference
total collagen in lungs, picrosirius red staining [1]: reduced the abnormally high levels of collagen
percentage of lymphocytes in BAL (20 mg/kg IP, day 21, Wright-Giemsa stain (FIG. 5B)): significantly blocked the bleomycin effect
